Reference: PubChem BioAssay (NCI)
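Following 48 hours of exposure in 96-well plates, responses at five concentrations were used to interpolate endpoints linearly. GI50: concentration for 50% inhibition of growth. At the TGI there is no net growth.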

Columns and labels:
Test in all cases: inhibition of tumour cell growth, NCI panel, 48 h
SK-MEL-28 melanoma = test system: SK-MEL-28 melanoma
MDA-MB-435 = test system: MDA-MB-435
HOP-62 NSCLC = test system: HOP-62 NSCLC
CAKI-1 renal = test system: CAKI-1 renal
A498 renal = test system: A498 renal
EKVX NSCLC = test system: EKVX NSCLC
SN12C renal = test system: SN12C renal
UACC-257 melanoma = test system: UACC-257 melanoma
TK-10 renal = test system: TK-10 renal
BT-549 breast = test system: BT-549 breast
MCF7 breast = test system: MCF7 breast
SW-620 colon = test system: SW-620 colon
HOP-92 NSCLC = test system: HOP-92 NSCLC
MALME-3M melanoma = test system: MALME-3M melanoma
COLO 205 colon = test system: COLO 205 colon
KM12 colon = test system: KM12 colon
RPMI-8226 leukemia = test system: RPMI-8226 leukemia
NCI-H226 lung = test system: NCI-H226 lung
SF-539 CNS = test system: SF-539 CNS
MDA-MB-231 breast = test system: MDA-MB-231 breast
T-47D breast = test system: T-47D breast
U251 CNS = test system: U251 CNS
K-562 leukemia = test system: K-562 leukemia
ACHN renal = test system: ACHN renal
LOX IMVI melanoma = test system: LOX IMVI melanoma
SK-MEL-5 melanoma = test system: SK-MEL-5 melanoma
SK-MEL-2 melanoma = test system: SK-MEL-2 melanoma
M14 melanoma = test system: M14 melanoma
HCT-116 colon = test system: HCT-116 colon
RXF 393 renal = test system: RXF 393 renal
SNB-19 CNS = test system: SNB-19 CNS
HCC-2998 colon = test system: HCC-2998 colon
DU-145 prostate = test system: DU-145 prostate
SNB-75 CNS = test system: SNB-75 CNS
OVCAR-5 ovarian = test system: OVCAR-5 ovarian
PC-3 prostate = test system: PC-3 prostate
HS 578T breast = test system: HS 578T breast
OVCAR-8 ovarian = test system: OVCAR-8 ovarian
MOLT-4 leukemia = test system: MOLT-4 leukemia
CCRF-CEM leukemia = test system: CCRF-CEM leukemia
UACC-62 melanoma = test system: UACC-62 melanoma
NCI/ADR-RES ovarian = test system: NCI/ADR-RES ovarian
786-0 renal = test system: 786-0 renal
IGROV1 ovarian = test system: IGROV1 ovarian
HCT-15 colon = test system: HCT-15 colon
OVCAR-4 ovarian = test system: OVCAR-4 ovarian
SF-295 CNS = test system: SF-295 CNS
SK-OV-3 ovarian = test system: SK-OV-3 ovarian
SF-268 CNS = test system: SF-268 CNS
NCI-H23 lung = test system: NCI-H23 lung
SR leukemia = test system: SR leukemia
OVCAR-3 ovarian = test system: OVCAR-3 ovarian
A549 NSCLC = test system: A549 NSCLC
UO-31 renal = test system: UO-31 renal

O=C1C(Nc2ccc(Cl)cc2)=C(I)C(=O)c2ncccc21
GI50 (SK-MEL-28 melanoma): 1640 nM
TGI (SK-MEL-28 melanoma): 3020 nM
GI50 (MDA-MB-435): 1430 nM
TGI (MDA-MB-435): 2900 nM
GI50 (HOP-62 NSCLC): 1790 nM
TGI (HOP-62 NSCLC): 4740 nM
GI50 (CAKI-1 renal): 327 nM
TGI (CAKI-1 renal): 1540 nM
GI50 (A498 renal): 2530 nM
TGI (A498 renal): 13400 nM
GI50 (EKVX NSCLC): 1710 nM
TGI (EKVX NSCLC): 3320 nM
GI50 (SN12C renal): 1470 nM
TGI (SN12C renal): 2990 nM
GI50 (UACC-257 melanoma): 1290 nM
TGI (UACC-257 melanoma): 2600 nM
GI50 (TK-10 renal): 1590 nM
TGI (TK-10 renal): 2940 nM
GI50 (BT-549 breast): 2000 nM
TGI (BT-549 breast): 4720 nM
GI50 (MCF7 breast): 289 nM
TGI (MCF7 breast): 1160 nM
GI50 (SW-620 colon): 378 nM
TGI (SW-620 colon): 2000 nM
GI50 (HOP-92 NSCLC): 1430 nM
TGI (HOP-92 NSCLC): 2900 nM
GI50 (MALME-3M melanoma): 875 nM
TGI (MALME-3M melanoma): 2140 nM
GI50 (COLO 205 colon): 1320 nM
TGI (COLO 205 colon): 2790 nM
GI50 (KM12 colon): 1680 nM
TGI (KM12 colon): 11000 nM
GI50 (RPMI-8226 leukemia): 1330 nM
TGI (RPMI-8226 leukemia): 5000 nM
GI50 (NCI-H226 lung): 1520 nM
TGI (NCI-H226 lung): 3030 nM
GI50 (SF-539 CNS): 1630 nM
TGI (SF-539 CNS): 3000 nM
GI50 (MDA-MB-231 breast): 1310 nM
TGI (MDA-MB-231 breast): 2700 nM
GI50 (T-47D breast): 1000 nM
TGI (T-47D breast): 3540 nM
GI50 (U251 CNS): 1480 nM
TGI (U251 CNS): 2800 nM
GI50 (K-562 leukemia): 278 nM
TGI (K-562 leukemia): 10400 nM
GI50 (ACHN renal): 376 nM
TGI (ACHN renal): 1320 nM
GI50 (LOX IMVI melanoma): 624 nM
TGI (LOX IMVI melanoma): 2110 nM
GI50 (SK-MEL-5 melanoma): 1550 nM
TGI (SK-MEL-5 melanoma): 2910 nM
GI50 (SK-MEL-2 melanoma): 1550 nM
TGI (SK-MEL-2 melanoma): 3030 nM
GI50 (M14 melanoma): 828 nM
TGI (M14 melanoma): 2260 nM
GI50 (HCT-116 colon): 305 nM
TGI (HCT-116 colon): 1180 nM
GI50 (RXF 393 renal): 1690 nM
TGI (RXF 393 renal): 3120 nM
GI50 (SNB-19 CNS): 1610 nM
TGI (SNB-19 CNS): 3230 nM
GI50 (HCC-2998 colon): 1770 nM
TGI (HCC-2998 colon): 3740 nM
GI50 (DU-145 prostate): 1370 nM
TGI (DU-145 prostate): 3370 nM
GI50 (SNB-75 CNS): 1310 nM
TGI (SNB-75 CNS): 3090 nM
GI50 (OVCAR-5 ovarian): 1580 nM
TGI (OVCAR-5 ovarian): 3000 nM
GI50 (PC-3 prostate): 1120 nM
TGI (PC-3 prostate): 2600 nM
GI50 (HS 578T breast): 2130 nM
TGI (HS 578T breast): 6440 nM
GI50 (OVCAR-8 ovarian): 1510 nM
TGI (OVCAR-8 ovarian): 3120 nM
GI50 (MOLT-4 leukemia): 964 nM
TGI (MOLT-4 leukemia): 9320 nM
GI50 (CCRF-CEM leukemia): 784 nM
TGI (CCRF-CEM leukemia): 5880 nM
GI50 (UACC-62 melanoma): 1330 nM
TGI (UACC-62 melanoma): 3120 nM
GI50 (NCI/ADR-RES ovarian): 2010 nM
TGI (NCI/ADR-RES ovarian): 5370 nM
GI50 (786-0 renal): 910 nM
TGI (786-0 renal): 2250 nM
GI50 (IGROV1 ovarian): 359 nM
TGI (IGROV1 ovarian): 1410 nM
GI50 (HCT-15 colon): 373 nM
TGI (HCT-15 colon): 1820 nM
GI50 (OVCAR-4 ovarian): 989 nM
TGI (OVCAR-4 ovarian): 2190 nM
GI50 (SF-295 CNS): 6790 nM
TGI (SF-295 CNS): 19600 nM
GI50 (SK-OV-3 ovarian): 4280 nM
TGI (SK-OV-3 ovarian): 18000 nM
GI50 (SF-268 CNS): 1370 nM
TGI (SF-268 CNS): 3230 nM
GI50 (NCI-H23 lung): 1250 nM
TGI (NCI-H23 lung): 3170 nM
GI50 (SR leukemia): 301 nM
TGI (SR leukemia): 2280 nM
GI50 (OVCAR-3 ovarian): 247 nM
TGI (OVCAR-3 ovarian): 1030 nM
GI50 (A549 NSCLC): 2750 nM
TGI (A549 NSCLC): 9480 nM
GI50 (UO-31 renal): 473 nM
TGI (UO-31 renal): 1740 nM
